Patent publication US20130085109A1, “METHODS OF CARDIOVASCULAR PATIENT TREATMENT USING SUBSTANCES SUFFICIENT TO REDUCE ACTIN DEPOLYMERIZATION” (priority 2008, published 2013)

What was measured:
[1] = tested on: NADPH oxidase; test: NADPH oxidase activity assay in subcellular membrane preparations of vessels; assay type: in vivo, swine
Experimental: (§1) In some experiments (n=3), the carotid arteries were treated with jasplakinolide to stablize the actin. […] The right side vessel 114 was filled with saline and served as control. The reverse or forward flows were then ensured for 2 hrs (for superoxide measurement) or 4 hrs (for NADPH oxidase measurment by western blot) after clamps 116, 118 were released. A low concentration of jasplakinolide was used, which was sufficient to stabilize actin and to avoid possible non-specific effects at high concentration. […]
Stored samples were placed in ice cold lysis buffer containing 20 mM KH2PO4, 1 mM EGTA and protease inhibitor cocktail (Sigma-Aldrich, St. Louis, Mo.) and homogenized with an electric homogenizer (Power Gen 35, Fisher Scientific) for 20 seconds each. […] The enzyme activity was determined in 200 μl assay buffer at pH7.4 containing the following (in mM): HEPES, 25; NaCl, 120; KCl, 5.9; MgSO4, 1.2; CaCl2, 1.75; glucose, 11; β-NADPH, 0.1; and L012, 0.1. The reaction started by adding 10 μL of homogenate, and the luminescence was measured every 15 seconds for 5 minutes by Perkin Elmer plate reader at ultra-sensitive mode. The protein concentration was determined by BCA kit (Bio-Rad) and the results of enzyme activity were standardized to protein level of each sample. […]

[2] = tested on: carotid artery with reverse flow; test: Superoxide measurement (L012 luminescence) in carotid arteries after in vivo reverse flow with drug treatment; parameters: species or system swine
From the text: To create a full reverse flow, and as part of an exemplary system 100 of the present disclosure, two tubes 102, such as two pieces of silicone tubing, were inserted into the two respective ends of the isolated vessel segment 104 as shown in FIGS. 1A and 1B. In at least one embodiment, tubes 102 are configured to fit within a portion of isolated vessel segment 104, and in at least another embodiment, tubes 102 are configured so surround the ends of vessel segment and are held in place with a connector (not shown). […]
The harvested vessels (vessel segments 104) were cut into small rings at approximately 3 mm in length in 37° C. […] The L012 (100 μM) was added last and the luminescence was recorded for 60 minutes at 1 minute intervals using a plate reader from Perkin Elmer (En vision Xcite Multilabel Reader, Perkin Elmer, Shelton, Conn.) at ultra-luminecent mode. […]
Samples were obtained from carotid arteries with forward (solid bar) or reverse (empty bar) flow (FF or RF, respectively) or reverse flow plus jasplakinolide (Jasp) treatment (lined bar). The basal level of superoxide measured under forward flow condition was taken as 100%, and all other measurements were expressed as percentage to the basal level. Each measurement was performed in triplicate and data were expressed as mean±1SD. […]

[3] = tested on: carotid artery wall; test: Superoxide in carotid artery wall by dihydroethidine fluorescence (laser confocal microscopy) after flow reversal; assay type: in vivo; conditions: apocynin 1 mM in drinking water concurrently with carotid flow reversal; vs flow reversal without apocynin
Experimental: The carotid arteries of animals were removed and examined by laser confocal microscopy excitation (514 nm; emission, 605 nm; Objective, 40x. C.3.a. Visualization of NO and O2-Using Fluorescence) following perfusion under conditions of: Control (C), Flow Reversal (FR), and Apocynin+Flow Reversal (AC). The apocynin was administered in drinking water (1 mM) to an animal concurrently with carotid flow reversal. Dihydroethidine (DHE), a fluorescent dye, was used to indicate superoxide in arterial wall.

[4] = tested on: actin in carotid artery endothelial cells; conditions: reported previously; cited from earlier work
[5] = tested on: actin in carotid artery endothelial cells; test: Actin immunostain (Alexa Fluor488-phalloidin) of carotid artery rings, in vitro actin depolymerization; assay type: cell-based, swine; conditions: 10 μM cytochalasin D, 30 minutes, 37° C.
Experimental: For actin staining, vessels under different conditions were cut into 4 mm rings and immediately fixed for 2 hours in 4% methanol-free formaldehyde-PBS solution (Thermo Scientific, Rockford, Ill.). For in vitro actin depolymerization immunochemistry, 3 to 4 mm carotid artery ring from control animal were incubated with 10 μM cytochalasin D for 30 minutes. Samples were fixed for 2 hours and then processed for actin staining.
The fixed samples were permeablized by 0.1% tritonX-PBS solution. After non-specific sites were blocked by 1% BSA in PBS, actin was labled by incubating samples with Alexa Fluor488-phalloidin (Invitrogen, Carlsbad, Calif.) for 30 minutes at room temperature. After labeling, each sample was cut into a 3×3 mm piece and mounted on glass slide and covered with a glass cover slip in the presence of 70% glyceral-PBS and sealed with glue. The samples were observed under a Zeiss confocal microscope (Zeiss 510 meta) and images were captured under 100× objective oil lens with excitation at 488 nm and emission at BP 500-530 nm.
All samples were viewed under confocal microscopy (Zeiss 510 meta) with 100× objective with excitation at 488 nm and Emission at BP 500-530 nm.

[6] = tested on: carotid artery rings (endothelial cells); test: Superoxide measurement (L012 luminescence) in carotid artery rings treated in vitro; assay type: cell-based, swine
Experimental: For superoxide measurements, carotid arteries (vessel segments 104) from both sides were quickly removed and placed into a heated (37° C.) chamber filled with HEPES buffered PSS containing (in mM): D-glucose, 5.5; KCl, 4.7; NaCl, 142; HEPES sodium salt, 2.7; MgSO4, 1.17; CaCl2, 2.79; at pH 7.4. For NADPH oxidase activity assays or protein expression measurements by western blot, the left and right carotid arteries were removed and saved in a −80° C. freezer until analysis.
The harvested vessels (vessel segments 104) were cut into small rings at approximately 3 mm in length in 37° C. HEPES PSS buffer. The rings were first transferred into […] with HEPES-PSS and incubated at 37° C. for 5 minutes. Various compounds [cytochalason D, latrunculin B, jasplakinolide, and phorbol 2-myrisate 13-acetate (PMA)] were then added into each well for treatment. The L012 (100 μM) was added last and the luminescence was recorded for 60 minutes at 1 minute intervals using a plate reader from Perkin Elmer (En vision Xcite Multilabel Reader, Perkin Elmer, Shelton, Conn.) at ultra-luminecent mode. The total reaction volume was 200 μl. After each recording, the sample rings were air dried and weighed. Each condition was tested in triplicate. To remove the endothelial cells, the vessel ring was gently rubbed against the tip of a pair of forceps.
Basal superoxide production was detected in the carotid artery (vessel segment 104) samples obtained from control animals with forward blood flow as shown in FIG. 2A. Rings were incubated with or without treatments of cytochalasin D (cyt D), latrunculin (Latru) or jasplakinolide (Jasp) and the superoxide production were recorded using plate reader at ultrasensitive mode for luminescence to generate the results shown in FIG. 2A. The luminescence recorded from rings without treatment was considered at base level and taken as 100%. The luminescence recorded under other conditions was expressed as percentage of base level. The superoxide production induced by PMA was used as positive control as identified in FIG. 2B. Each condition was tested in triplicate from each animal. The significance of increased superoxide production was test using ANOVA (p=0.004 for cytochalasin D, n=10 and p=0.044 for Latrucillin, n=3), and the data are mean±1SD.

[7] = tested on: p47phox; test: p47phox phosphorylation (phosphoserine immunoprecipitation and western blot), in vitro; assay type: cell-based, swine; conditions: cytochalasin D treatment in vitro; p<0.05
Experimental: For p47^phox phosphorylation measurements, the total protein with phosphoserine was first immunoprecipitated according to a known method. Briefly, samples were first incubated with rabbit polyclonal antibody to phosphoserine (Abcam, Cambridge, Mass.) for 2 hours at 4° C. Samples were then mixed with Protein G PLUS-Agarose (Santa Cruz Biotechnology, Santa Cruz, Calif.) and incubated overnight at 4° C. Samples were then centrifuged and washed three times with lysis buffer. The pellet was resuspended in loading buffer and denatured. The p47^phox was then measured by western blot.
P47^phox phosphorylation was examined further to understand the molecular basis for increased superoxide production subsequent to actin depolymerization and flow reversal, as shown in FIGS. 7A-7D. The phosphorylated P47^phox was standardized by total P47^phox. The level of phosphorylated P47^phox at basal level in vitro (FIG. 7A) or under forward flow (FF) condition in vivo (FIG. 7C) were taken as 100% and the level of phosphorylated P47^phox after cytochalasin D treatment or under reversed flow (RF) condition were expressed as percent thereof. […] The data are mean and SD of at least three experiments from different animals (*p<0.05).

[8] = tested on: gp91phox and p47phox; test: Western blot for NADPH oxidase expression; assay type: in vivo, swine; conditions: jasplakinolide, four hours of treatment
Experimental: as §1
The artery segments were homogenized in the lysis buffer containing 50 mM glycerophosphate, 100 μM sodium orthovanadate, 2 mM magnesium chloride, 1 mM EGTA, 0.5% Triton X-100, 1 mM DL-dithiothreitol, 20 μM pepstatin, 20 μM leupeptin, 0.1 U/ml aprotinin, and 1 mM phenylmethylsulfonyl fluoride and then incubated on ice for 1 hour. […] The total protein was measured by a BCA kit (Bio-Rad). […]
The NADPH oxidase activity was examined using an enzyme assay in subcellular membrane prepared from vessels with different flow conditions. […] The data are expressed as ratio of enzyme activity measured in vessel from reverse flow (RF) or reverse flow with jasplakinolide (RF-Jasp) treatment vs forward flow (FF). […] The data are expressed as ratio of protein band density of reversed flow sample versus that from forward flow sample.

[9] = tested on: porcine femoral artery preparation; test: NO metabolite (nitrite) production in perfused porcine femoral artery preparation, forward and reverse flow; conditions: tempol added to perfusate
Experimental: A purfusate was passed through an in vitro porcine femoral artery preparation in the forward and reverse flow directions and the levels of NO metabolite (nitrite) were measured at various flowrates in the forward and reverse directions. Thereafter, tempol was added to the perfusate and the levels of NO metabolite (nitrite) were again measured at various flowrates in the forward and reverse directions. […] The asterisk denotes statistical significance by ANOVA analysis between groups at the respective flows (P<0.05).

What does the source list for `COc1cc(C(C)=O)ccc1O` [apocynin, 4-hydroxy-3-methoxy-acetophenone]?
NADPH oxidase enzyme activity ([1]; samples from animals treated with apocynin): reduced; reversed flow induced superoxide production ([2]; apocynin bolus 4 mg/kg i.v. then 3.5 μg/kg/min i.v.): abolished; amount of superoxide present in artery wall (DHE fluorescence) [3]: reduced the amount of superoxide

For `C=C1[C@@H](C)[C@H]2[C@H](Cc3ccccc3)NC(=O)[C@]23[C@H](OC(C)=O)/C=C/[C@@](C)(O)C(=O)[C@@H](C)C/C=C/[C@H]3[C@@H]1O` [cytochalasin D], which “cytochalasin D concentration at which all long actin filament bundles were disrupted and replaced by focal aggregates of F-actin” value [4] is on record?
Its value is at least 2 µM.

What about the “cytochalasin D concentration at which changes of actin cytoskeleton were visible” value [4] of the same molecule?
Its value is 20 nM.

And the actin filament pattern [5]?
The actin filament pattern was “significant disruption of actin filaments”.

And the “increase of superoxide production vs untreated samples” value ([6]; 10 μM cytochalasin D, artery samples under normal forward flow)?
The value was “about 5 fold”.

And the “superoxide production in vessel with reverse flow” value ([6]; cytochalasin D added to samples from reverse flow vessel)?
The value was “further increase”.

And the “p47phox phosphorylation vs untreated sample” value [7]?
The value was “increased”.

For `C/C1=C\[C@H](C)C[C@H](C)OC(=O)C[C@H](c2ccc(O)cc2)NC(=O)[C@@H](Cc2c(Br)[nH]c3ccccc23)N(C)C(=O)[C@H](C)NC(=O)[C@@H](C)C1` [jasplakinolide], which “NADPH oxidase activity in vessel with reversed flow vs untreated vessel” value ([1]; jasplakinolide treatment (0.1 μM prefill)) is on record?
Its value is “decreased”.

And the “increase of superoxide production on reversed blood flow” value ([2]; vessel prefilled with 0.1 μM jasplakinolide 10 minutes, reverse flow 2 hrs)?
Its value is “prevented”.

What about the “superoxide level vs untreated samples” value ([6]; 0.1 μM jasplakinolide, artery samples under normal forward flow) of the same molecule?
The value was “not changed”.

What about the “expression of NADPH oxidase subunits gp91phox and p47phox” value [8] of the same molecule?
Its value is “not changed”.

For `C/C1=C/C(=O)O[C@@H]2C[C@@H](CC[C@H](C)/C=C\CC1)O[C@@](O)([C@@H]1CSC(=O)N1)C2` [latrunculin, latrunculin B], which “increase of superoxide production vs untreated samples” value ([6]; 1 μM latrunculin, artery samples under normal forward flow) is on record?
Its value is about 2 fold.

Which results are given for `CC1(C)CC(O)CC(C)(C)N1[O]` [tempol, 4-hydroxy-2,2,6,6-tetramethyl-4-piperidine-N-oxyl]?
NO production (NO metabolite nitrite) ([9]; forward flow): did not cause a statistically significant increase; NO production (NO metabolite nitrite) ([9]; reverse flow, P<0.05): did significantly increase
